In publication PMC5412352 (International Journal of Molecular Sciences, 2017):
Entries after “also recorded” stand apart in the source; their conditions may differ.

Key:
[1] = biological target: human GhrR (hGhrR-eYFP, HEK293 cell membranes) (Homo sapiens, UniProt Q92847); test: Competitive radioligand binding assay with [125I-His9]ghrelin at hGhrR membranes
Description: Each concentration was tested in duplicate. The membrane-bound radioligand was trapped on a Filtermat B (PerkinElmer) pre-soaked with 0.1% polyethylenimine in H2O by using a filtermat harvester (PerkinElmer). After drying for 20 min at 55 °C, a Meltilex scintillation sheet (PerkinElmer) was melted onto the filtermat and the samples were counted in a Microbeta scintillation counter (PerkinElmer).

adrenergic α1BRs = test: Commercial screening by Eurofins Panlabs; assay type: binding
chemokine CXCR3Rs = biological target: T1, chemokine CXCR3Rs (Homo sapiens, UniProt P49682); test: Commercial screening by Eurofins Panlabs; assay type: binding
T1 construct: Eurofins Panlabs (Taiwan), contract screening
T1 sequence (P49682 1-368): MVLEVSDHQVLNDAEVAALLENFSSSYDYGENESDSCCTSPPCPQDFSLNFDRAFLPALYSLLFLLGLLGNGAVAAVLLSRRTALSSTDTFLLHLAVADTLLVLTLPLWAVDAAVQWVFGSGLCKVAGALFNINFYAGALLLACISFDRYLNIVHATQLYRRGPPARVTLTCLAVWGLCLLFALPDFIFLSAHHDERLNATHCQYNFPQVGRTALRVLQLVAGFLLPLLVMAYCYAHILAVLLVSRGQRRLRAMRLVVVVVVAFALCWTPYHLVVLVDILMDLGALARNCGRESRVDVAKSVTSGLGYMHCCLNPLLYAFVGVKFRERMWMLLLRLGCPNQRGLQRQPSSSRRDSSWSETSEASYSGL

[2] = biological target: hGhrR (COS7 cells stably expressing hGhrR-eYFP) (Homo sapiens, UniProt Q92847); test: cell-based
Sequence of hGhrR (COS7 cells stably expressing hGhrR-eYFP) (Q92847 whole entry): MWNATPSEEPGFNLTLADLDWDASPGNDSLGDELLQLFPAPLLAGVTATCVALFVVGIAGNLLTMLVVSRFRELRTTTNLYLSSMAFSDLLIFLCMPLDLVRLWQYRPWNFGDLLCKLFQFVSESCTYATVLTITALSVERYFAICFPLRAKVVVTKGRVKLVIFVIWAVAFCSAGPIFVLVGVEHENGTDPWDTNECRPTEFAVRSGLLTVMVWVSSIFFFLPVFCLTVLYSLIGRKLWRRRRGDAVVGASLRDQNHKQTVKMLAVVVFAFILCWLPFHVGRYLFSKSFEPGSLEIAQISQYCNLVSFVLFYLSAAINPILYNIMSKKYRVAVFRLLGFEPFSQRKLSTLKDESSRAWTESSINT
Description: For that purpose, the inositol phosphate accumulation assay was used [43, 44].
Briefly, 60,000 to 80,000 cells/well of COS7 cells, stably expressing the fusion protein hGhrR-eYFP, were seeded in 48-well plates in Dulbecco’s modified Eagle’s medium (DMEM) with 10% fetal calf serum (FCS) and 0.4 mg/mL hygromycin B. The next day, the cells were labeled with [2-^3H]-myo-inositol (2 µCi/mL, PerkinElmer). […] Cell debris was removed and the supernatant purified on an anion-exchange resin (BioRad, Hercules, CA, USA). The obtained data were analyzed with GraphPad Prism 5.0 (GraphPad Software, San Diego, CA, USA). […] EC50/IC50 values were calculated from at least three independent experiments. Emax is defined as the difference between maximal and minimal effect in presence of the compound.

GhrR = biological target: GhrR; parameters: method as in PMID 22342626; conditions: previously published value; cited from earlier work
muscarinic M2Rs = biological target: T2, muscarinic M2Rs (Homo sapiens, UniProt P08172); test: Commercial screening by Eurofins Panlabs; assay type: binding
T2 construct: Eurofins Panlabs (Taiwan), contract screening
T2 sequence (P08172 1-466): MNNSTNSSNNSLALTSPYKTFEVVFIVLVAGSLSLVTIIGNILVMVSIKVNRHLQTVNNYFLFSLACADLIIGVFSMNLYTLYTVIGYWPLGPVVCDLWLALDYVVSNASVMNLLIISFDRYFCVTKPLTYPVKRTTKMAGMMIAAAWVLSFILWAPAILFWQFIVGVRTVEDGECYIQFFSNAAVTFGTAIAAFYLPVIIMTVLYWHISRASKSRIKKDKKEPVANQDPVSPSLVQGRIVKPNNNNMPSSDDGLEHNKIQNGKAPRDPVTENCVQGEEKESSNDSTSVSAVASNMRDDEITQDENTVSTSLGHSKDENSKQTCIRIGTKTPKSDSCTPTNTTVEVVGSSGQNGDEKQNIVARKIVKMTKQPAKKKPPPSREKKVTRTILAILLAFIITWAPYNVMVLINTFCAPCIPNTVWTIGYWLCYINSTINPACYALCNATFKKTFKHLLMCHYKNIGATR

rat σ2 receptor = biological target: T3, rat σ2 receptor (Rattus norvegicus, UniProt Q5U3Y7); test: Selectivity radioligand displacement, [3H]DTG, rat liver homogenate; assay type: binding; conditions: [3H]DTG + 1 µM dextrallorphan
T3 construct: rat σ2 receptor = rat liver homogenate; from tissue; host or cells: rat liver homogenate
T3 sequence (Q5U3Y7 1-176): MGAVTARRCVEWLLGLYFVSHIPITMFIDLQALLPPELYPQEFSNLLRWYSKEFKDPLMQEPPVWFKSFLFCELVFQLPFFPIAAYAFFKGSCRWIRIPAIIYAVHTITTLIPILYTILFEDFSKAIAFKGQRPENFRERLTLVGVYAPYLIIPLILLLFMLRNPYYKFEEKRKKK
Description: […]
The incubations were terminated by rapid filtration via glass-fiber filters presoaked in PEI (0.3%, 60 min at rt), and the filter-bound radioactivity was counted by liquid scintillation counting (Tricarb, PerkinElmer).

Sequence of human GhrR (hGhrR-eYFP, HEK293 cell membranes) (Q92847 whole entry): as the sequence (Q92847 whole entry) above

For `Cc1nc2ccc(Oc3ccc(Br)cc3F)nc2c(=O)n1C[C@H]1CCCN(C(C)C)C1` [(S)-9, (S)-6-(4-Bromo-2-fluorophenoxy)-3-((1-isopropylpiperidin-3-yl)methyl)-2-methylpyrido[3,2-d]pyrimidin-4(3H)-one], the IC50 [1] was 2190 pM, the “significant response (≥50% inhibition or stimulation)” value (adrenergic α1BRs) was “did not show significant responses; also recorded: did not show significant binding” and the “significant response (≥50% inhibition or stimulation)” value (chemokine CXCR3Rs) was “did not show significant responses; also recorded: did not show significant binding”. It also gave an Emax ([2]; COS-7, mean ± SEM, refers to ghrelin Emax as 100%, 0% = constitutive receptor activity) of roughly 60%, an EC50 ([2]; EC50, 2 h stimulation in absence of ghrelin, COS7-hGhrR) of 700 pM and an EC50 ([2]; pEC50, mean ± SEM, 2 h stimulation in absence of ghrelin) of 676 pM. The Ki (GhrR) was 10 pM, the “significant response (≥50% inhibition or stimulation)” value (muscarinic M2Rs) was “did not show significant responses; also recorded: did not show significant binding” and the Ki (rat σ2 receptor) was 87000 ± 23000 pM.
